Test results published in patent US5990083A, “Multicatalytic protease inhibitors” (Cephalon, Inc., priority 1997, dated 1999).
Several values for one entry are separate records, joined by “and”; a condition that tells them apart may be missing. Identical values can stand only once.

Key:
[1] = system: control soleus muscle; assay: Effect of MCP inhibitors on control muscle protein content; format: in vivo, rat; conditions: Table 1; treated soleus versus vehicle-injected contralateral muscle
Text: Juvenile female Sprague-Dawley rates (80-90 g) were tail-cast, hind limb suspended as in Jetspers, S. R. and Tischler, M. E., (1984) J. Appl. Physiol. 57: 1472-1479. The animal's hind limbs were elevated above the floor of the cage with each animal housed individually. Animals had free access to food and water, and were weighed at the time of suspension and at time of termination. During the suspension period the animals were checked daily to ensure that their toes were not touching the floor of the cage, and that there was no swelling of the tail due to the cast.
Animals were treated as in group B, except that 1 mM MCP inhibitor, contained in dimethysulfoxide (DMSO), was injected into the soleus of one leg and DMSO only into the contralateral soleus. Thus each experiment consisted of two control groups and the testing of MCP inhibitors of the invention. The completion of five such experiments with different pairs of inhibitors provided for an "n" value of 10 for testing each MCP inhibitor and with each tested in two different shipments of animals.
After the animal was sacrificed, the soleus was excised, trimmed of fat and connective tissue, and carefully weighed. The muscle was then homogenized in 10% trichloroacetic acid (TCA) and the precipitated protein pelleted by centrifugation. The pellet was then washed once with 10% TCA and once with ethanol:ether (1:1). The final pellet was solubilized in 4 ml of 1N sodium hydroxide. The sample was then analyzed for protein content by the biuret procedure, using albumin as a standard.
The effect of MCP inhibitors on total muscle protein content was examined primarily by paired comparison with the untreated contralateral muscle. The ratio of contents was calculated and then analyzed statistically by analysis of variance ("ANOVA"). The left leg was always the treated leg so that the protein content ratios could be compared to the non-treated control animals as well. In this way, a significant difference can be shown by comparing the protein content of the two legs, as well as the relative effectiveness of the tested MCP inhibitors. […]

[2] = target: T1, human MCP (Homo sapiens, UniProt P28074+Q99436); assay: Determination of IC50 values for MCP inhibitors (chymotrypsin-like or trypsin-like activity of MCP); format: biochemical; conditions: Table 5, first series; enzyme incubated with inhibitor 15 minutes at 37° C. prior to substrate
T1 construct: Samples of human liver and brain obtained post-mortem were used for isolation and partial purification of MCP; from tissue; host or cells: human liver and brain, post-mortem
In short: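 Partially purified human liver/brain MCP was activated with 0.04% SDS and preincubated with compound 15 min at 37 °C before substrate. Chymotrypsin-like activity used 100 μM MeOSuc-EVKM-pNA (490 nm) or MeOSuc-FLF-AMC. Trypsin-like activity used 100 μM Z-FR-AMC in Tris-glycerol pH 9.5 with 1 mM 2-mercaptoethanol; IC50 came from linear-rate hydrolysis.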

Compound | Protein, Treatment (control muscle) [1] [mg/muscle] | IC50 [2]
COC(=O)CCCCCCCC(C(=O)N[C@@H](CCCNC(=N)NS(=O)(=O)c1c(C)c(C)c2c(c1C)CCC(C)(C)O2)C(=O)N[C@H](C=O)CC(C)C)C1CCCC1 (stereo partly drawn) [Compound 20, 9-Methoxycarbonyl-2-cyclopentyl-nonanoyl-N^g-(2,2,5,7,8-pentamethylchroman-6-sulfonyl)-L-arginyl-L-leucinal] | 5.9 | 10 nM
CC(C)C[C@@H](C=O)NC(=O)[C@H](CCCNC(=N)N[N+](=O)[O-])NC(=O)C(CCCCCCCCC#N)C1CCCC1 (stereo partly drawn) [Compound 14, 10-cyano-2-cyclopentyldecanoyl-N^g-nitro-L-arginyl-L-leucinal] | 6.1 | 7 nM and 6 nM
